What all share (assay): NCI anticancer screen, dose series, 48 h
Test [1] concerns DU-145 prostate.
Test [2] deals with HCT-116 colon.
Test [3] concerns HCT-15 colon.
Test [4] deals with HL-60(TB) leukemia.
In test [5] the test system is HS 578T breast.
In test [6] the test system is MOLT-4 leukemia.
Test [7] deals with OVCAR-3 ovarian.
Test [8] has as its system OVCAR-4 ovarian.

The values below come from PubChem BioAssay (NCI).

Each structure is given as a SMILES string. “And” between values parts separate entries of the source, which are not always exact repeats. Equal entries are not always repeated.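 Each compound was tested at five concentrations against cells in 96-well plates for 48 hours. GI50: concentration for 50% inhibition of growth. Definition used: TGI = concentration required for complete inhibition of growth.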 A value given as a limit tells only on which side of the number the result lay.

As for `Cc1cc(O)ccc1C1=NN(c2ccc(S(N)(=O)=O)cc2)C(=O)CC1`, the GI50 was 15.1 µM and 46.3 µM in test [1]; 3.5 µM and 7.27 µM in test [2]; 2.67 µM and 4.2 µM in test [3]; 1.85 µM and 5 µM in test [4]; 6.64 µM and 60.5 µM in test [5]; 2.67 µM and 6.09 µM in test [6]. Further, the GI50 is 2.69 µM and 8.06 µM in test [7]; over 100 µM in test [8]. In addition, the TGI was 50 µM and > 100 µM in test [1]; 50 µM and > 100 µM in test [2]; 50 µM and > 100 µM in test [3]; 50 µM and > 100 µM in test [4]; 43.9 µM and > 100 µM in test [5]; 50 µM and > 100 µM in test [6]. Also, the TGI in test [7] was 29.9 µM and 71 µM; in test [8], over 100 µM.

Take `COc1ccc(Cn2cc(COc3cc(/C=C/C(=O)c4cc(OC)c(OC)c(OC)c4)ccc3OC)nn2)cc1`: the GI50 in test [1] was 2.41 µM; in test [2], 3.36 µM; in test [3] it was 2.76 µM; in test [4], 4.55 µM; in test [5] it was 7.88 µM; in test [6], 4.67 µM. Further, the GI50 was 2.62 µM in test [7] and 7.04 µM in test [8]. Also, the TGI was 5.2 µM in test [1]; over 100 µM in test [2]; over 100 µM in test [3]; 35.1 µM in test [4]; over 100 µM in test [5]; over 100 µM in test [6]. In addition, the TGI in test [7] was 6.71 µM; in test [8], over 100 µM.

As to `C[C@]12CC[C@H](O[C@@H]3O[C@H](CO[C@@H]4O[C@H](CO)[C@@H](O)[C@H](O)[C@H]4O)[C@@H](O)[C@H](O)[C@H]3O)C[C@@H]1CC[C@@H]1[C@@H]2CC[C@]2(C)[C@@H](C3=CC(=O)OC3)CC[C@]12O`, the TGI in test [1] was 26.4 µM; in test [2] it was 34.9 µM; in test [3], 42.9 µM; in test [4] it was 54.9 µM; in test [5], over 100 µM; in test [6], over 41 µM. Moreover, the TGI in test [7] is over 74.1 µM; in test [8], 57.8 µM.

As for `O=C1C=C(NCCO)c2nccc3c2c1nc1ccccc13`, the GI50 in test [1] is 24.8 µM; in test [2], 11.5 µM; in test [3], 18.6 µM; in test [4], 14.2 µM; in test [5], 25.5 µM; in test [6] it was 5.94 µM. Further, the results for the GI50 in test [7] and in test [8] were 18.6 µM and 41.3 µM, respectively. Also, the TGI was over 100 µM in test [1]; 38.7 µM in test [2]; over 100 µM in test [3]; over 100 µM in test [4]; over 100 µM in test [5]; over 100 µM in test [6]. Also, the TGI was 52.6 µM in test [7] and over 100 µM in test [8].

Turning to `Cn1ncc(C#N)c1-c1ccc2c(c1)CN([C@H](CN)Cc1cccc(F)c1)C2=O`, the GI50 in test [1] was 21.3 µM; in test [2], 12.9 µM; in test [3] it was 15.9 µM; in test [4], 22.1 µM; in test [5], 0.322 µM; in test [6] it was 0.413 µM. Besides, the results for the GI50 in test [7] and in test [8] were 10 µM and 23.1 µM, respectively. Besides, the TGI in test [1] was over 100 µM; in test [2] it was 28.7 µM; in test [3], over 100 µM; in test [4], 47.8 µM; in test [5], 11.4 µM; in test [6], 27.4 µM. Also, the TGI in test [7] is over 90.4 µM; in test [8] it was over 100 µM.

For `CCc1nc(C)cn1C(=O)OCc1nc2nc(Cl)nc(N3CCOCC3)c2[nH]1`, the GI50 is 1.22 µM in test [1]; 0.364 µM in test [2]; 0.677 µM in test [3]; 0.451 µM in test [4]; 1.74 µM in test [5]; 1.01 µM in test [6]. Also, the GI50 in test [7] is 0.636 µM; in test [8] it was 1.49 µM. The TGI is 2.52 µM in test [1]; 2.3 µM in test [2]; 2.22 µM in test [3]; 3.15 µM in test [4]; 4.89 µM in test [5]; 3.79 µM in test [6]. Also, the TGI in test [7] came to 1.98 µM; in test [8], 2.93 µM.

As to `C=CCn1c2ccccc2c2c3c(c4c5ccccc5n(CC=C)c4c21)C(=O)N(O)C3=O`, the GI50 in test [1] is 3.65 µM; in test [2], 2.29 µM; in test [3] it was 3.18 µM; in test [4] it was 2.09 µM; in test [5] it was 19.6 µM; in test [6] it was 1.02 µM. Moreover, the GI50 is 2.32 µM in test [7] and 5.38 µM in test [8]. Further, the TGI in test [1] was over 100 µM; in test [2] it was 12.5 µM; in test [3], 17 µM; in test [4] it was 4.31 µM; in test [5], over 100 µM; in test [6], 5.12 µM. The TGI is 8.07 µM in test [7] and 44.8 µM in test [8].

`CN1CCC2(CC1)N=C(SCC(=O)Nc1cnc3ccccc3c1)C(c1ccc(Br)cc1)=N2`: the GI50 in test [1] is 3.24 µM; in test [2], 1.77 µM; in test [3], 1.86 µM; in test [4], 1.61 µM; in test [5], 2.23 µM; in test [6] it was 1.93 µM. In addition, the GI50 in test [7] is 3.29 µM; in test [8] it was 3.52 µM. For the same compound, the TGI in test [1] was found to be 10.4 µM; in test [2] it was 3.16 µM; in test [3] it was 3.76 µM; in test [4], 3.75 µM; in test [5], 7.27 µM; in test [6], 4.37 µM. Further, the TGI in test [7] was found to be 12 µM; in test [8] it was 15.8 µM.

Take `COC(=O)[C@H](Cc1cn(C)cn1)NC(=O)[C@H](CC(=O)OCc1ccccc1)NC(=O)Nc1cc(C(F)(F)F)cc(C(F)(F)F)c1`: the GI50 was 6.18 µM in test [1]; 12.5 µM in test [2]; 17.9 µM in test [3]; 12.3 µM in test [4]; 2.8 µM in test [5]; 17.1 µM in test [6]. Moreover, the figures for the GI50 in test [7] and in test [8] were 2.5 µM and 11.6 µM, respectively. The TGI was 19.3 µM in test [1]; 40.7 µM in test [2]; over 100 µM in test [3]; 27.1 µM in test [4]; 8.09 µM in test [5]; 36.6 µM in test [6]. In addition, the figures for the TGI in test [7] and in test [8] were 6.25 µM and 27.1 µM, respectively.

As to `O=C(O)CCC(c1ccccc1)(c1ccccc1)c1ccccc1`, the TGI is over 100 µM in test [1]; over 100 µM in test [2]; over 100 µM in test [3]; over 90.6 µM in test [4]; over 100 µM in test [5]; over 92.2 µM in test [6]. Also, the TGI was over 69.6 µM in test [7] and over 100 µM in test [8]. The GI50 in test [2] was 43.6 µM.

Consider `CC(=Nc1ccc(N(C)C)cc1)c1ccccc1`, for which the TGI is over 100 µM in test [1]; 30.6 µM in test [2]; 37.9 µM in test [3]; 43.9 µM in test [4]; 65.1 µM in test [5]; 72.1 µM in test [6]. Besides, the TGI in test [7] amounted to 32.2 µM; in test [8], 40.8 µM.

Consider `Cn1c(CCCC(=O)O)nc2cc(N(CCCl)CCCl)ccc21`, for which the GI50 is over 80.6 µM in test [1]; over 80.5 µM in test [2]; over 100 µM in test [3]; over 51.2 µM in test [4]; over 83.3 µM in test [5]; 3.6 µM in test [6]. Besides, the GI50 in test [7] was over 66.2 µM; in test [8], over 100 µM. Moreover, the TGI in test [1] was over 100 µM; in test [2] it was over 100 µM; in test [3] it was over 100 µM; in test [4], over 85.3 µM; in test [5] it was over 100 µM; in test [6] it was 22.6 µM. Further, the values for the TGI in test [7] and in test [8] were over 93.3 µM and over 100 µM, respectively.

For `O/N=C(\CC(O)(C(F)(F)F)C(F)(F)F)c1cccs1`, the TGI in test [1], in test [2], in test [3], in test [4], in test [5] and in test [6] was over 10 µM throughout. Moreover, the TGI in test [7] and in test [8] was over 10 µM each time.

Consider `C/C(=N\NC(=O)c1ccncc1)c1sc(-n2nc(-c3ccccc3)cc2-c2ccccc2)nc1C`, for which the TGI is over 31.6 µM in test [1]; over 31.6 µM in test [2]; over 31.6 µM in test [3]; over 31.6 µM in test [4]; over 100 µM in test [5]; over 31.6 µM in test [6]. Moreover, the TGI in test [7] and in test [8] was over 31.6 µM each time.

As to `CC1=CC(=O)N(c2cccc3c(N4C(=O)C=C(C)C4=O)cccc23)C1=O`, the GI50 in test [1] is 4.08 µM; in test [2], 1.79 µM; in test [3] it was 2.67 µM; in test [4], 2.38 µM; in test [5] it was 18.6 µM; in test [6] it was 3.29 µM. Moreover, the GI50 is 1.54 µM in test [7] and 5.18 µM in test [8]. Also, the TGI is 14.4 µM in test [1]; 4.16 µM in test [2]; 10.2 µM in test [3]; 8.8 µM in test [4]; over 100 µM in test [5]; 11.1 µM in test [6]. The TGI in test [7] was 5.9 µM; in test [8], 16.9 µM.
